According to US20220031800A1, “PEPTIDES FOR TREATING NON-EXUDATIVE MACULAR DEGENERATION AND OTHER DISORDERS OF THE EYE” (Allegro Pharmaceuticals, LLC, priority 2019, published 2022):
Square brackets hold non-standard residues; d marks the D form. Peptide text beside a SMILES is read from it. Cya = N[C@@H](CS(=O)(=O)O)C(=O)O

How the values were obtained:
[1] = test system: study eye of subjects with intermediate non-exudative AMD; experiment: Lanthony D-15 color vision test (Total Error Score Hue Style) in Dry AMD study; type: in vivo, human; parameters: Color vision Total Error Score Hue Style, mean / Color vision Total Error Score Hue Style, median / Color vision Total Error Score Hue Style change, median: scale not given here
Procedure: Numerous study assessments were conducted at various time points throughout the study. Included among these study assessments were; refractive eye examinations, determinations of BCVA AND low-luminance BCVA, Lanthony D-15 color vision test, measurement of intraocular pressure (IOP), Indirect ophthalmoscopy/dilated fundus examinations and spectral-domain optical coherence tomography (SD-OCT). Also, blood and saliva samples were obtained from each subject for genetic analysis. The above-listed study assessments were performed at the time points indicated in Table 1, below: The results of color vision testing of the study subjects are summarized in Table 5, below.

[2] = test system: human retinal Müller cells (MIO-M1); experiment: MTT cell viability of human Müller cells (MIO-M1); type: cell-based; details: 24 hours, normalized to untreated control as 100%
Procedure: Purpose: To determine the effects of risuteganib and anti-VEGF drugs on the cell viability of cultured human retinal Müller cells (MIO-M1).
Methods: The immortalized human retinal Müller cell line (MIO-M1) was obtained from the Department of Cell Biology of the University College, London. Cells were cultured in Dulbecco's Modified Eagle's Medium (DMEM) and plated in 96-well plates for 24 hours before treatment with 0.5×, 1× or 2× concentrations of 1 mg/50 μL risuteganib, or 1× of ranibizumab, bevacizumab or aflibercept. Dosage was based on clinical dose of each compound. The experiments were repeated 3 times with 7-8 replicates each. After 24 hours of drug treatment, MTT NAD(P)H-dependent colorimetric assay was used to assess the number of viable cells present in the cultures. Absorbance ratios were normalized to untreated control as 100%. Statistical analysis was performed in GraphPad Prism software program.

[3] = test system: primary mouse retinal neuron cells; experiment: Trypan blue viability of primary mouse retinal neuron cells exposed to kainic acid; type: cell-based, CD1 mice; details: 1.0 mg/mL risuteganib alone
Procedure: Purpose: Investigate neuroprotective properties of risuteganib in primary mouse retinal neuron cells exposed to kainic acid, a neuroexcitatory compound that activates glutamate receptors, resulting in overstimulation and cell death.
Methods: Fresh retina were collected from CD1 mice and then mechanically dissociated with sterile Pasteur pipette. Cell suspensions were then dispensed into petri dish and incubated for 6 hours. Cells were then exposed to the experimental conditions: (1) untreated control, (2) 1.0 mg/mL risuteganib, (3) 500 μM kainic acid (KA), and (4) 1.0 mg/mL risuteganib for 24 hours before 500 μM kainic acid exposure. 8 hours after kainic acid treatment, dead and live cell numbers were measured using Trypan blue exclusion assay on a hemocytometer.

[4] = test system: human RPE cells (ARPE-19); experiment: Trypan blue viability of human RPE cells (ARPE-19) exposed to hydrogen peroxide; type: cell-based; details: 1.0 mg/mL risuteganib alone
Procedure: Purpose: Investigate cytoprotective properties of risuteganib in human RPE cells (ARPE-19) exposed to hydrogen peroxide, which is a reactive oxygen species that can induce cell death at elevated levels. Methods: ARPE-19 cells were cultured in laminin-coated trans-wells for 2 weeks to induce differentiation. Cells were then exposed to the experimental conditions: […]

[5] = test system: human retinal Müller cells (MIO-M1); experiment: Mitochondrial membrane potential (JC-1) in human Müller cells (MIO-M1); type: cell-based; details: 1× of 1 mg/50 μL, 24 hours; normalized to untreated control as 100%
Procedure: Purpose: To determine the effects of risuteganib on the mitochondrial membrane potential (ΔΨm) in cultured human retinal Müller cells (MIO-M1). Loss of ΔΨm is a marker for early cell death.
Methods: The immortalized human retinal Müller cell line (MIO-M1) was obtained from the Department of Cell Biology of the University College, London. Cells were cultured in Dulbecco's Modified Eagle's Medium (DMEM) and plated in 24-well plates for 24 hours before treatment with 1× concentration of 1 mg/50 μL risuteganib, ranibizumab, bevacizumab, or aflibercept. Dosage was based on clinical dose of each compound. The experiments were repeated 3 times with 6 replicates each. After 24 hours drug treatment, the ΔΨm was measured using the JC-1 kit, a cationic dye that fluoresces red within the mitochondria of healthy, live cells. In the stressed or apoptotic cells, the mitochondrial membrane potential collapses and the cationic dye fluoresces green. First, cells were rinsed with fresh media and then incubated with the JC-1 reagent for 15 minutes at 37 degrees C. The dyes were then removed, and phosphate buffered saline was added to each well. The Red fluorescence (live cells) was read at EX 550 nm and EM 600 nm. The Green fluorescence (apoptotic cells) was read at EX 483 nm and EM 535 nm. The changes in ΔΨm were calculated by the ratio of red to green fluorescence. […]

[6] = test system: human retinal Müller cells (MIO-M1); experiment: Reactive oxygen species level in human Müller cells (MIO-M1); type: cell-based; details: 1× concentration (clinical dose), 24 hours
Procedure: Purpose: To determine the effects of risuteganib and anti-VEGF drugs on reactive oxygen species (ROS) levels in cultured human retinal Müller cells (MIO-M1). Elevated ROS levels can disrupt normal cellular functions, leading to reduced cell health and possible cell death.
Methods: The immortalized human retinal Müller cell line (MIO-M1) was obtained from the Department of Cell Biology of the University College, London. Cells were cultured in Dulbecco's Modified Eagle's Medium (DMEM) and plated in 24-well plates for 24 hours before treatment with 1× concentration of 1 mg/50 μL ALG-1001, ranibizumab, bevacizumab, or aflibercept. Dosage was based on clinical dose of each compound. The experiments were repeated 3 times with 6 replicates each. After 24 hours drug treatment, ROS level was measured using the fluorescent dye 2′,7′-dichlorodihydrofluorescein diacetate. The signals were read using the Biotek Synergy HT plate reader with EX filter in 482 nm and EM filter in 520 nm. Results were normalized to untreated control as 100%. Statistical analysis was performed in GraphPad Prism software program.

[7] = test system: study eye of subjects with intermediate non-exudative AMD; experiment: Microperimetry (mean retinal sensitivity, number of loci summed); type: in vivo, human
[8] = Week 12, Group 2 (1 mg IVT day 1 + wk 16)
[9] = Week 32, Group 1 crossover (sham day 1, 1 mg IVT wk 16)
[10] = Week 32, Group 2 (1 mg IVT day 1 + wk 16)
[11] = Week 32 change, Group 1 crossover (sham day 1, 1 mg IVT wk 16)
[12] = Week 32 change, Group 2 (1 mg IVT day 1 + wk 16)

C[C@@H](O)[C@H](NC(=O)[C@H](CS(=O)(=O)O)NC(=O)CNC(=O)[C@H](CCCNC(=N)N)NC(=O)CN)C(=O)N1CCC[C@H]1C(=O)O [risuteganib, Glycyl-L-arginylglycyl-3-sulfo-L-alanyl-L-threonyl-L-proline] (H-GRG[Cya]TP-OH)
Color vision Total Error Score Hue Style, mean [1, 8]: 43.38
Color vision Total Error Score Hue Style, median [1, 8]: 39.67
Color vision Total Error Score Hue Style change, median ([1]; Week 12 change from screening, Group 2 (1 mg IVT day 1 + wk 16)): 2.67
Color vision Total Error Score Hue Style change, mean ([1]; Week 12 change from screening, Group 2 (1 mg IVT day 1 + wk 16), increase = worsening): 2.41
Color vision Total Error Score Hue Style, mean [1, 9]: 48.76
Color vision Total Error Score Hue Style, median [1, 9]: 42.00
Color vision Total Error Score Hue Style, mean [1, 10]: 39.88
Color vision Total Error Score Hue Style, median [1, 10]: 24.09
Color vision Total Error Score Hue Style change, median ([1]; Week 32 change from screening, Group 2 (1 mg IVT day 1 + wk 16)): −3.17
Color vision Total Error Score Hue Style change, median [1, 11]: 1.34
Decrease (improvement) in color vision total error score ([1]; risuteganib responders at Week 32 (FIG. 3)): 13.03
Cell viability (MTT) ([2]; 0.5× of 1 mg/50 μL): 111.3±2.189
Cell viability (MTT) ([2]; 1× of 1 mg/50 μL): 113.5±13.5
Cell viability (MTT) ([2]; 2× of 1 mg/50 μL): 100.3±7.8
Change in cell viability, treatment alone [3]: did not induce detectable change in cell viability
Change in cell viability, treatment alone [4]: did not induce detectable change in cell viability
Mitochondrial membrane potential (ΔΨm, red/green JC-1 ratio) [5]: 109.3±4.91
Change in ROS level compared to untreated control [6]: −19%
Microperimetry mean sensitivity, mean [7, 8]: 7.52 dB
Microperimetry mean sensitivity, median [7, 8]: 7.50 dB
Microperimetry number of loci summed (reduced sensitivity), mean [7, 8]: 84.9
Microperimetry number of loci summed (reduced sensitivity), median [7, 8]: 86.5
Microperimetry mean sensitivity change, median ([7]; Week 12 change, Group 2 (1 mg IVT day 1 + wk 16)): −1.50 dB
Microperimetry mean sensitivity, mean [7, 9]: 11.44 dB
Microperimetry mean sensitivity, median [7, 9]: 13.70 dB
Microperimetry number of loci summed (reduced sensitivity), mean [7, 9]: 67.6
Microperimetry number of loci summed (reduced sensitivity), median [7, 9]: 60.0
Microperimetry mean sensitivity, mean [7, 10]: 8.25 dB
Microperimetry mean sensitivity, median [7, 10]: 8.50 dB
Microperimetry number of loci summed (reduced sensitivity), median [7, 10]: 79.5
Microperimetry mean sensitivity change, median [7, 11]: −0.20 dB
Microperimetry number of loci summed change, mean [7, 11]: 7.9
Microperimetry mean sensitivity change, median [7, 12]: −0.40 dB
Microperimetry number of loci summed change, mean [7, 12]: 1.0
Increase (improvement) in mean retinal sensitivity ([7]; risuteganib responders at Week 32 (FIG. 5)): 2.2 dB
